Results from US3981999A, “Fish disease treatment” (Dainippon Pharmaceutical Co., Ltd., priority 1973, dated 1976).
Converted amounts (≈) assume the structure as drawn. Where two headings read alike, the source gives them in different places.

Tests used:
Vibrio anguillarum A-8 = experiment: MIC by broth serial dilution; assay type: cell-based
Description: (§1) The MIC (minimum inhibitory concentration) of a test compound was determined by the serial dilution method on various pathogenic microorganisms incubated under the following experimental conditions. The lowest concentration at which the visible growth of the organism was inhibited was considered as MIC. […]
(§2) the broth-dilution method bouillon, pH 7.2, except for Vibrio (3% NaCl-bouillon, pH 7.2), Pasteurella (2% NaCl-Brain Heart Infusion, pH 7.3 and Chondrococcus (TY medium, pH 7.3) 1 drop of a bacterial suspension per test tube (100 - 1000 minimal growing units in the medium) 25°C, except for Pseud. anguilliseptica (20°C)
(§3) 48 hours, except for Pseudo. anguilliseptica ([…])

[1] = test system: Pasteurella piscicida Al-3; experiment: MIC by broth serial dilution; assay type: cell-based; details: Photobacterium damselae
Description: as §1, §2, §3

[2] = test system: Aeromonas salmonicida Hara-2; experiment: MIC by broth serial dilution; assay type: cell-based
Description: as §1, §2, §3

[3] = test system: Pasteurella piscicida K-1; experiment: MIC by broth serial dilution; assay type: cell-based; details: Photobacterium damselae
Description: as §1, §2, §3

Chondrococcus sp K-1 = experiment: MIC by broth serial dilution; assay type: cell-based
Description: as §1, §2, §3

[4] = test system: Aeromonas salmonicida Kawazu; experiment: MIC by broth serial dilution; assay type: cell-based
Description: as §1, §2, §3

Chondrococcus sp K-2 = experiment: MIC by broth serial dilution; assay type: cell-based
Description: as §1, §2, §3

[5] = test system: Aeromonas salmonicida Hara-1; experiment: MIC by broth serial dilution; assay type: cell-based
Description: as §1, §2, §3

[6] = test system: Aeromonas salmonicida Kusuda; experiment: MIC by broth serial dilution; assay type: cell-based
Description: as §1, §2, §3

[7] = test system: Aeromonas liquefaciens Y-62; experiment: MIC by broth serial dilution; assay type: cell-based; details: Aeromonas hydrophila
Description: as §1, §2, §3

Vibrio anguillarum Km-30 = experiment: MIC by broth serial dilution; assay type: cell-based
Description: as §1, §2, §3

Vibrio anguillarum K-3 = experiment: MIC by broth serial dilution; assay type: cell-based
Description: as §1, §2, §3

[8] = test system: Pseudomonas anguilliseptica T-2; experiment: MIC by broth serial dilution; assay type: cell-based
Description: as §1, §2, §3

[9] = test system: Pseudomonas anguilliseptica S-1; experiment: MIC by broth serial dilution; assay type: cell-based
Description: as §1, §2, §3

[10] = test system: Aeromonas liquefacieus Y-62; experiment: Oral effect against Aeromonas infection in goldfish; assay type: in vivo
Description: Goldfish each weighing about 6 - 7 g were given a fish food containing each of the test compounds. After 30 minutes, the fish were infected intramuscularly with Aeromonas liquefacieus Y-62 (about 10^7 germs/fish) under ether anesthesia. […] In the same manner, the control group was given the same fish food without the test compound.

goldfish = experiment: Oral toxicity in goldfish; assay type: in vivo; details: 10% in diet (PA 800, AT-1493 955, AT-1557 935, AT-1475 923 mg/kg)
Description: A diet containing 10% of each of the test compounds was given orally to groups each consisting of 5 goldfish each weighing 6 to 10 g, and observation was made for the following 7 days. The temperature of the water was maintained at 28°C.

[11] = 1% in diet, 80.4 mg/kg, day 0: 5 fish
[12] = 3% in diet, 253.1 mg/kg, day 0: 5 fish
[13] = TY medium pH 7.3, 25°C, 48 hours, read-out: MIC
[14] = bouillon pH 7.2, 25°C, 48 hours, read-out: MIC
[15] = 0.1% in diet (PA 6.1, AT-1493 7.5, AT-1557 7.6, AT-1475 7.5 mg/kg), day 0: PA 10, others 5 fish
[16] = 0.3% in diet, 22.3 mg/kg, day 0: 5 fish

`CN(C)C1C(=O)C(C(N)=O)=C(O)C2(O)C(=O)C3=C(O)c4c(O)cccc4C(C)(O)C3CC12` (stereo not drawn) [Tetracycline, tetracycline, reference compound] was tested, and the MIC (Vibrio anguillarum A-8; A8, 48 h, pH 7.2) was 1 µg/mL (≈ 2.25 µM), the MIC ([1]; AL3, 48 h, pH 7.3) was 0.3 µg/mL (≈ 0.675 µM) and the MIC ([2]; HARA2, 48 h, pH 7.2) was 0.1 µg/mL (≈ 0.225 µM). It also gave an MIC ([3]; K1, 48 h, pH 7.3) of 0.3 µg/mL (≈ 0.675 µM), an MIC (Chondrococcus sp K-1; 48 h, pH 7.3) of 1 µg/mL (≈ 2.25 µM) and an MIC ([4]; 48 h, pH 7.2) of 1 µg/mL (≈ 2.25 µM). For the same compound, the MIC (Chondrococcus sp K-2; 48 h, pH 7.3) was 1 µg/mL (≈ 2.25 µM), the MIC ([5]; HARA1, 48 h, pH 7.2) was 0.3 µg/mL (≈ 0.675 µM) and the MIC ([6]; 48 h, pH 7.2) was 0.3 µg/mL (≈ 0.675 µM). It also gave an MIC ([7]; Y62, 48 h, pH 7.2) of 1 µg/mL (≈ 2.25 µM), an MIC (Vibrio anguillarum Km-30; KM30, 48 h, pH 7.2) of 0.3 µg/mL (≈ 0.675 µM) and an MIC (Vibrio anguillarum K-3; K3, 48 h, pH 7.2) of 1 µg/mL (≈ 2.25 µM). The MIC ([8]; T2, 7 h, pH 7.2) was 0.3 µg/mL (≈ 0.675 µM), the MIC ([9]; S1, 7 h, pH 7.2) was 0.3 µg/mL (≈ 0.675 µM) and the Percent survival ([10]; 1% in diet, 80.4 mg/kg) was 0%. For the same compound, the “Number of surviving fish after 1 day” value [10, 11] was 3, the “Number of surviving fish after 2 days” value [10, 11] was 0 and the “Number of surviving fish after 3 days” value [10, 11] was 0. The Percent survival ([10]; 3% in diet, 253.1 mg/kg) was 0%, the “Number of surviving fish after 1 day” value [10, 12] was 5 and the “Number of surviving fish after 2 days” value [10, 12] was 1. The “Number of surviving fish after 3 days” value [10, 12] was 0 and the Percent survival ([10]; diet concentration of as high as more than 0.1% as well as as low as 0.1%) was “zero”.
In the case of `C=Cn1cc(C(=O)O)c(=O)c2ccc(N3CCNCC3)nc21` [AT-1475, 1,4-Dihydro-7-(1-piperazinyl)-4-oxo-1-vinyl-1,8-naphthyridine-3-carboxylicacid], the MIC (Vibrio anguillarum A-8; A8, 3% NaCl-bouillon pH 7.2, 25°C, 48 hours, read-out: MIC) is reported as 10 µg/mL (≈ 33.3 µM), the MIC ([1]; AL3, 2% NaCl-Brain Heart Infusion pH 7.3, 25°C, 48 hours, read-out: MIC) is reported as 1 µg/mL (≈ 3.33 µM) and the MIC ([2]; HARA2, bouillon pH 7.2, 25°C, 48 hours, read-out: MIC) is reported as 1 µg/mL (≈ 3.33 µM). The MIC ([3]; K1, 2% NaCl-Brain Heart Infusion pH 7.3, 25°C, 48 hours, read-out: MIC) was 1 µg/mL (≈ 3.33 µM), the MIC (Chondrococcus sp K-1; [13]) was 1 µg/mL (≈ 3.33 µM) and the MIC [4, 14] was 0.3 µg/mL (≈ 0.999 µM). For the same compound, the MIC (Chondrococcus sp K-2; [13]) was 1 µg/mL (≈ 3.33 µM), the MIC ([5]; HARA1, bouillon pH 7.2, 25°C, 48 hours, read-out: MIC) was 0.3 µg/mL (≈ 0.999 µM) and the MIC [6, 14] was 0.3 µg/mL (≈ 0.999 µM). It also gave an MIC ([7]; Y62, bouillon pH 7.2, 25°C, 48 hours, read-out: MIC) of 0.3 µg/mL (≈ 0.999 µM), an MIC (Vibrio anguillarum Km-30; KM30, 3% NaCl-bouillon pH 7.2, 25°C, 48 hours, read-out: MIC) of 10 µg/mL (≈ 33.3 µM) and an MIC (Vibrio anguillarum K-3; K3, 3% NaCl-bouillon pH 7.2, 25°C, 48 hours, read-out: MIC) of 3 µg/mL (≈ 9.99 µM). For the same compound, the MIC ([8]; T2, bouillon pH 7.2, 20°C, 7 hours, read-out: MIC) was 0.1 µg/mL (≈ 0.333 µM), the MIC ([9]; S1, bouillon pH 7.2, 20°C, 7 hours, read-out: MIC) was 0.1 µg/mL (≈ 0.333 µM) and the Percent survival ([10]; 0.1% in diet (PA 6.1, AT-1493 7.5, AT-1557 7.6, AT-1475 7.5 mg/kg), 5 days) was 60%. For the same compound, the “Number of surviving fish after 1 day” value [10, 15] was 5, the “Number of surviving fish after 2 days” value [10, 15] was 4 and the “Number of surviving fish after 3 days” value [10, 15] was 4. The “Number of surviving fish after 4 days” value [10, 15] was 3, the “Number of surviving fish after 5 days” value [10, 15] was 3 and the Percent survival ([10]; 0.3% in diet, 22.3 mg/kg, 5 days) was 100%. For the same compound, the “Number of surviving fish after 1 day” value [10, 16] was 5, the “Number of surviving fish after 2 days” value [10, 16] was 5 and the “Number of surviving fish after 3 days” value [10, 16] was 5. The “Number of surviving fish after 4 days” value [10, 16] was 5, the “Number of surviving fish after 5 days” value [10, 16] was 5 and the Mortality (goldfish; 7 days) was 0%. The “Number of the survival after 1 day from administration” value (goldfish; day 0: 5 fish) was 5, the “Number of the survival after 2 days from administration” value (goldfish; day 0: 5 fish) was 5 and the “Number of the survival after 3 days from administration” value (goldfish; day 0: 5 fish) was 5. The “Number of the survival after 4 days from administration” value (goldfish; day 0: 5 fish) was 5, the “Number of the survival after 5 days from administration” value (goldfish; day 0: 5 fish) was 5 and the “Number of the survival after 6 days from administration” value (goldfish; day 0: 5 fish) was 5. The “Number of the survival after 7 days from administration” value (goldfish; day 0: 5 fish) was 5.
